Assay results: patent US4423215A, “Method of preparing sodium salts of imidazoledicarboxylic acid substituted cephalosporin derivatives” (Ajinomoto Company, Inc., priority 1981, dated 1983)
Counter-ions that a name gives are not always drawn. Like-named read-outs stand apart in the source and are kept apart here.

Assay: Acute toxicity, LD50 (mouse, i.v.)
Assay type: in vivo

| SMILES | LD50 [mg/kg] | LD50 (disodium salt) |
| --- | --- | --- |
| O=C(O)C1=C(C[n+]2ccc(CCS(=O)(=O)[O-])cc2)CS[C@@H]2[C@H](NC(=O)[C@H](NC(=O)c3[nH]cnc3C(=O)O)c3ccccc3)C(=O)N12 [dipotassium salt, 7B-[D--(-)-α-(4-carboxyimidazole-5-carboxyamide)-phenylacetamide]-3-(4-β-sulfoethyl-pyridinium)-methyl-3-cepham-4-carboxylic acid] | 500 to 1000 | – |
| O=C(O)C1=C(C[n+]2ccc(CCS(=O)(=O)[O-])cc2)CS[C@@H]2[C@H](NC(=O)[C@H](NC(=O)c3[nH]cnc3C(=O)O)c3ccccc3)C(=O)N12 [disodium salt, 7B-[D--(-)-α-(4-carboxyimidazole-5-carboxyamide)-phenylacetamide]-3-(4-β-sulfoethyl-pyridinium)-methyl-3-cepham-4-carboxylic acid, disodium salt] | – | more than 3 g/kg |
